Results as given in patent US8980851B2, “Methods for bone treatment by modulating an arachidonic acid metabolic or signaling pathway” (Accelalox, Inc., priority 2005, dated 2015).
Read-outs that look alike come from different tables or passages of the source.

Columns and labels:
mouse calvaria = conditions: in vitro organ culture; cited from earlier work
[1] = system: fetal rat calvaria (osteoblast) cells; conditions: in vitro; cited from earlier work
closed femur fracture [2] = assay: Torsional mechanical testing of fractured rat femurs (Example 4); format: in vivo, Sprague-Dawley rats; conditions: 5 weeks of healing; for greater peak torque than vehicle treated rats: Inhibitor A 30 mg/kg, Inhibitor B 5 mg/kg, 2 doses daily until day 21; for mode of femur failure in torsional testing (boney union vs non-union): all femurs, vehicle 13% (2 of 15) non-unions
Procedure: (§1) Sprague-Dawley rats (3 months old) underwent a standard closed femur fracture procedure as described in the art (Simon et al. Journal of Bone and Mineral Research, 17(6): 963-976 (2002); Bonnarens and Einhorn, Production of a standard closed fracture in laboratory animal bone. Journal of Orthopaedic Research, 2: 97-101 (1984)). The impending fracture was stabilized with an intramedullary stainless steel pin. Beginning 4 hours after fracture the rats were treated with vehicle (1% methylcellulose) or inhibitors of 5-LO suspended in 1% methylcellulose Inhibitor A (NDGA) was administered at 30 mg/kg and Inhibitor B (AA-861) was administered at 5 mg/kg. The day after surgery and continuing until day 21 post-fracture, experimental rats were treated with 2 doses of inhibitor (either A or B), the first dose between […] and then again with another dose 8-10 hours later. Control rats were treated similarly but with carrier only (1% methylcellulose). Three weeks after fracture the rats were anesthetized and high resolution radiographs were made of the fractured femurs using a Packard Faxitron and Kodak MinR2000 mammography film (FIGS. 8A, 8B, and 8C). Five weeks after fracture the rats were sacrificed, femurs resected, and assayed for structural mechanical properties by torsional mechanical testing (FIG. 8D).
Torsional mechanical testing was used to measure the peak torque sustained by each femur after 5 weeks of healing.

closed femur fracture [3] = assay: Rat closed femur fracture healing, radiographs (Example 4); format: in vivo, Sprague-Dawley rats; conditions: treated rats vs untreated rats
Procedure: as §1

Saos-2 cells = conditions: cited from earlier work
[4] = system: primary rat calvaria (osteoblast) cultures; conditions: in vitro; cited from earlier work
G292 cells = conditions: cited from earlier work
[5] = higher concentration (0.3-1 micromolar)

## 5-hydroxyeicosatetraenoic acid [Inhibitor 5-HETE]
Mouse calvaria
  BMP2 induced increase in mouse calvaria thickness: prevented
[1]
  alkaline phosphatase activity: reduce
  bone nodule formation: reduce

## CC(Cc1ccc(O)c(O)c1)C(C)Cc1ccc(O)c(O)c1 (stereo not drawn) [Inhibitor A, nordihydroguaiaretic acid]
Closed femur fracture [2]
  greater peak torque than vehicle treated rats: 22%
  mode of femur failure in torsional testing (boney union vs non-union): failed as boney unions
Closed femur fracture [3]
  osteogenesis / fracture healing (FIG. 8, x-rays): accelerated

## CC1=C(C)C(=O)C(CCCCC#CCCCC#CCO)=C(C)C1=O [Inhibitor B, 2-(12-hydroxydodeca-5,10-diynyl)-3,5,6-trimethyl-1,4-benzoquinone]
Closed femur fracture [2]
  greater peak torque than vehicle treated rats: 53%
  mode of femur failure in torsional testing (boney union vs non-union): failed as boney unions
Closed femur fracture [3]
  osteogenesis / fracture healing (FIG. 8, x-rays): accelerated
Saos-2 cells; concentration not given
  proliferation of Saos-2 cells: no effect

## CCCCC/C=C\C[C@@H](O)/C=C/C=C/C=C\[C@@H](O)CCCC(=O)O [LTB4]
[4]
  proliferation of primary rat osteoblast cultures: reduces proliferation
Mouse calvaria
  BMP2 induced increase in mouse calvaria thickness: prevented
[1]
  alkaline phosphatase activity: reduce
  bone nodule formation: reduce
G292 cells; [5]
  proliferation of G292 cells: promote proliferation
Saos-2 cells; [5]
  proliferation of Saos-2 cells: promote proliferation

## CCCCC/C=C\C\C=C/C=C/C=C/[C@@H](SC[C@H](NC(=O)CC[C@H](N)C(=O)O)C(=O)NCC(=O)O)[C@@H](O)CCCC(=O)O [LTC4]
[4]
  proliferation of primary rat osteoblast cultures: no effect
G292 cells; concentration not given
  proliferation of G292 cells: promote proliferation
Saos-2 cells; concentration not given
  proliferation of Saos-2 cells: no effect

## CCCCC/C=C\C\C=C/C=C/C=C/[C@@H](SC[C@H](N)C(=O)NCC(=O)O)[C@@H](O)CCCC(=O)O [LTD4]
[1]
  alkaline phosphatase activity: no effect
  bone nodule formation: no effect
